Results on two compounds are retold here after patent publication US20110060000A1, “ACRIDINE ANALOGS IN THE TREATMENT OF GLIOMAS” (priority 2009, published 2011).

The test system of one series is C6. The series can be described thus: TUNEL labeling in C6. The note with it: C6, 24 hours. Type of series: cell-based, rat. Here is the method:
C6 were plated on glass coverslips. Cells were fixed and stained accordingly to manufacturer instructions. Propidium staining of the nuclei was replaced by Hoechst included in the mounting media. Several images were acquired with a high resolution camera on a microscope equipped with a 10× long working distance dry lens and analyzed with powerful commercial software. Results were expressed in the graph as green labeled pixel counts. The images from the top to the bottom are respectively from N.T., DMSO, Thap 20 nM, Thap 200 nM, STS100 nM. The blue images reflect nuclear staining while the images on the right represent BRDU staining.
Thereafter, cells were harvested and protein extracted. Procaspase 12 band at 65 kDa was identified. In some of the treatments, the active product at 45 kDa was also detected. […] Conversely, in C6, higher GRP78 levels and the cell environment reflect significant caspase activation. […] Caspase activation in ERSR conditions was also confirmed with a TUNEL based apoptosis detection system in C6. […] High resolution images of the experiments were acquired and image morphometric analysis was performed to determine quantitative parameters of the staining as previously described (Pascale et al., 2004, “Translocation of protein kinase C-betaII in astrocytes requires organized actin cytoskeleton and is not accompanied by synchronous RACK1 relocation.” Glia 46(2): 169-82). […]

For the next series, the system named is C6 cells. The note with it: tested at less than 1 μM; cited from earlier work.
The subject of the next series is DNA. The note with it: cited from earlier work.
A further series deals with tumor cells. The note with it: in vitro and in vivo; cited from earlier work.
Series [1] relates to U87-MG skin xenograft tumor explants. Put plainly: U87-MG skin xenograft tumor explants, ERSR markers. Type of series: in vivo, mice. The note with it: samples after 7 and 21 days. From the text: U7 represents vehicle treated sample after 7 days. U21 represents vehicle treated sample after 21 days. Q7 represents quinacridine-treated sample after 7 days. Q21 represents quinacridine-treated sample after 21 days. 9AA-7 represents 9-aminoacridine-treated sample after 7 days. 9AA-21 represents 9-aminoacridine-treated sample after 21 days.

For the next series, the system named is platelets. The note with it: cited from earlier work.
For series [2], the system named is subcutaneous U87-MG gliomas. Put plainly: Mice bearing subcutaneous U87-MG gliomas. It is filed as in vivo. From the text: The estimated survival prolongment is 14 days in mice life which compares at 851 days in human life based on a life expectancy of 18 months in mice and 90 years in human. Also, since one animal was tumor-free at the end of the treatment that translates in an expected 16% cure rate.
FIG. 29a graphs % tumor weight/control as a function of days after implantation. […] Such a profile indicates effectiveness in vivo for both treatment and for prevention of relapse. FIG. 29b graphs % animal survival as a function of days after implantation. […] Such a profile indicates effectiveness in vivo for both treatment and for prevention of relapse.
Mice bearing subcutaneous gliomas were received daily oral administration of 200 mg/kg of quinacrine. […] In FIG. 29 is shown the effect of 100 mg/kg of quinacrine and 10 mg/kg 9-aminoacridine in Mice bearing subcutaneous U87-MG gliomas.

For another series, the system named is p53. The note with it: cited from earlier work.
The test system of the next series is glioma cells. Put plainly: Gliotoxicity, cell line not stated. It is filed as cell-based. From the text:
Spiperone is a selective D2 dopamine receptor antagonist. This drug is used in the treatment of schizophrenia and other hallucinatory states. […] In an effort to develop Structure-Activity Relationships around the chosen compounds, a search of commercially available compounds that are either close structural analogs of these lead compounds (for example, acridine and quinoline analogs of quinacrine) or are related to these in terms of their pharmacological activity (dopamine receptor antagonists related to spiperone) was performed.

The conditions of series [3]: intrapleural, 100 mg/day in 50 ml saline for 4 days; cited from earlier work.
The mark [4] stands for this setting: 200 mg/kg daily oral for 14 days.
The mark [5] stands for this setting: full dose over about 45 days, Q oral, 9-AA I.P.
[6] abbreviates: half dose (maintenance dose) up to about 60 days.

On to `C/C=C(/C)C(=O)O[C@H]1C(C)=C2[C@H]([C@@H]1OC(=O)CCCCCCC)[C@@](C)(OC(C)=O)C[C@H](OC(=O)CCC)[C@@]1(O)[C@H]2OC(=O)[C@@]1(C)O` [THAP, thapsigargin], for which the TUNEL labeling result in the series with C6 is given as “clear increase of TUNEL labeling”.
For `CCN(CC)CCCC(C)Nc1c2ccc(Cl)cc2nc2ccc(OC)cc12` (stereo not shown) [quinacrine], in the series with C6 cells, the “killing of C6 cells” value is “ineffective in killing C6 cells”. Also, the DNA damaging activity entry in the series with DNA is reported as “not found to show DNA damaging activity”. Also, the “toxicity to tumor versus normal cells” value in the series on tumor cells is on record as “more toxic to tumor than to normal cells”. Further, in series [1], the “ERSR activation and GRP78 target protein in tumor explants” value was “activaiton of ERSR and changes in GRP78 target protein”; the “caspase 12 activation in tumor explants” value is reported as “activation of caspase 12 is evident”. In addition, the “alpha-granule release reaction of platelets” value in the series with platelets is recorded as “prevent the alpha-granule release reaction of platelets”. Moreover, the antiglioma action entry in series [2] (100 mg/kg of quinacrine and 10 mg/kg 9-aminoacridine) is on record as “powerful antiglioma action”. In series [2] (200 mg/kg daily oral), the “delay in tumor growth” value was 14 days and the “tumor growth after withdrawal of treatment versus controls” value is “significant reduction in tumor growth than controls”. For the same compound, in series [2] (setting [4]), the “estimated survival prolongment in mice life” value was 14 days, the “tumor in one of the treated animals” value is “disappearance of the tumor” and the “tumor size in treated animals” value is given as “tumors decrease in size”. Besides, in series [2] (200 mg/kg daily oral, at 11 days), the “effect on tumor growth” value is on record as “already significant”. Further, the “inhibition of tumor growth” value in [2] (200 mg/kg daily oral, at 21 days) is reported as 6-7 folds. For the same compound, in series [2] (setting [5]), the “animal survival rate compared to control” value is on record as “increased survival rate” and the “tumor size compared to control” value is “decrease in tumor size”. Moreover, in series [2] (setting [6]), the “animal survival rate compared to control” value is listed as “survival rate was high” and the “tumor size compared to control” value was “tumor size remained relatively constant”. Also, the “delay / survival prolongment translated to human life” value in series [2] (life expectancy 18 months in mice, 90 years in human) amounted to 851 days. The compound further registered a cure rate in [2] (quinacrine 200 mg/kg daily oral, one animal tumor-free) of 16%. Besides, in the series with p53, the “p53 activation and p53-dependent killing of tumor cell types” value was “capable of p53 activation and p53-dependent killing”. In addition, the “cytotoxicity in human cells versus rat cells” value in the series on glioma cells is on record as “higher cytotoxicity in human cells than in rat cells”. In addition, the gliotoxicity result in the series on glioma cells (cell line not stated) is “by far the most effective gliotoxic compound”. The peak concentration entry in series [3] was “less than 10 ng/ml”.
